Measurements published in patent US8987256B2, “Oxo-heterocyclic substituted carboxylic acid derivatives and the use thereof” (Bayer Intellectual Property GmbH, priority 2008, dated 2015).

Experiments:
[1] = biological target: T1, soluble guanylate cyclase (sGC) (Rattus norvegicus, UniProt P20595); test: Activating action at the sGC enzyme in vitro (PPi detection, luciferase); assay type: biochemical
T1 construct: made in house; host or cells: baculovirus/Sf9 insect cells
T1 sequence (P20595 1-619): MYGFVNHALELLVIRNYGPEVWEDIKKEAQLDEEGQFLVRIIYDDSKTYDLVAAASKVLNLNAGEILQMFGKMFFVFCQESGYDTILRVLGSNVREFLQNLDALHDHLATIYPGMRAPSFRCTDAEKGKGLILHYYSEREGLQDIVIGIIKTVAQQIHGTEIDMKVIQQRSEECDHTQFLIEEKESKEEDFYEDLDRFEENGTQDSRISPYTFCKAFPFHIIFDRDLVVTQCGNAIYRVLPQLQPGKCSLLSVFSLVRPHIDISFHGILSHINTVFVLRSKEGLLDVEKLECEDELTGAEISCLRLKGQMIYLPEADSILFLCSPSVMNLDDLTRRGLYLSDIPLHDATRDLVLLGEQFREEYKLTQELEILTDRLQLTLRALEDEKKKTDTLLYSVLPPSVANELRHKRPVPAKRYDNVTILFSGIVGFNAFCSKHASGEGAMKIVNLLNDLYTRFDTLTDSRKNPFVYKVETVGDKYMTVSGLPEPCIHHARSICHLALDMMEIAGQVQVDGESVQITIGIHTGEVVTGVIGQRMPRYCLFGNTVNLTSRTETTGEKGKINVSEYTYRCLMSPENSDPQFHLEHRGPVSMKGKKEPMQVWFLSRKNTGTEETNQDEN
T1 sequence (P19686 1-690 partner): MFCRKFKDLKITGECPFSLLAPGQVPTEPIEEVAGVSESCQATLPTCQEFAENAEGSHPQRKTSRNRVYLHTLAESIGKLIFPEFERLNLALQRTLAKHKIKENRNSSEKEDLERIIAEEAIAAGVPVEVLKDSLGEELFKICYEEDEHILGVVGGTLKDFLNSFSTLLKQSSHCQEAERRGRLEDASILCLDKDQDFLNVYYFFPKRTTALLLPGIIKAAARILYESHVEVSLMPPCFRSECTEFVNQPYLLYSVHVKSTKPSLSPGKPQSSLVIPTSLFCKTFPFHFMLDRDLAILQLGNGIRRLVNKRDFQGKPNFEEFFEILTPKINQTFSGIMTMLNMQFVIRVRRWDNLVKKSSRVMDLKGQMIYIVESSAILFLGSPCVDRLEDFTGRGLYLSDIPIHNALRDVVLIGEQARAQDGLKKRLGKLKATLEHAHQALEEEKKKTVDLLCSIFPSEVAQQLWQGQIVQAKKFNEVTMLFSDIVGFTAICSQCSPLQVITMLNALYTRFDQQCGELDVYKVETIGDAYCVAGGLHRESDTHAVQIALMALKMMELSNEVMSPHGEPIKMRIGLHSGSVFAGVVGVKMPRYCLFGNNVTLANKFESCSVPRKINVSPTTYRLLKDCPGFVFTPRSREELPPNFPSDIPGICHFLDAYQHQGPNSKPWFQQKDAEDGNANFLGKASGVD
Method in brief: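 Rat sGC (0–10 nM) preincubated 10 min at room temperature with compound in TEA buffer, pH 7.5; reaction started with GTP (1.25 mM solution). PPi formed read continuously by luciferase luminescence; stimulation expressed relative to unstimulated enzyme. Heme-free enzyme tested after 30 min with 25 μM ODQ.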

[2] = biological target: T2, recombinant guanylate cyclase reporter cell line (Rattus norvegicus, UniProt P20595); test: sGC-activating activity in the CHO reporter cell in vitro; assay type: cell-based
T2 construct: expressed in transfected cells; host or cells: CHO reporter cell line
T2 sequence (P20595 1-619): T1 sequence (P20595 1-619)
T2 sequence (P19686 1-690 partner): T1 sequence (P19686 1-690 partner)
Experimental: The cellular action of the compounds according to the invention is determined at a recombinant guanylate cyclase reporter cell line, as described in F. Wunder et al., Anal. Biochem. 339, 104-112 (2005).

SMILES: O=C(O)CCc1cccc(NC(=O)C(c2ccc(CN3N=C(c4ccccc4)OCC3=O)cc2)C2CCCC2)c1 (single isomer, unassigned) [Example 103, 3-{3-[(Cyclopentyl{4-[(5-oxo-2-phenyl-5,6-dihydro-4H-1,3,4-oxadiazin-4-yl)methyl]phenyl}acetyl)amino]phenyl}propanoic acid]
- MEC (minimum effective concentration), activating action at the sGC enzyme [1]: 20 nM
- EC50 ([1]; read-out: EC50 (concentration at 50% of maximum efficacy), activating action at the sGC enzyme): 381 nM
- MEC (minimum effective concentration), sGC-activating activity in the CHO reporter cell [2]: 10 nM
